Holding throughout (format): ADME, cell-based
Data set [1] addresses T1, OATP1B3 (Homo sapiens, UniProt Q9NPD5).
T1 sequence (Q9NPD5 whole entry): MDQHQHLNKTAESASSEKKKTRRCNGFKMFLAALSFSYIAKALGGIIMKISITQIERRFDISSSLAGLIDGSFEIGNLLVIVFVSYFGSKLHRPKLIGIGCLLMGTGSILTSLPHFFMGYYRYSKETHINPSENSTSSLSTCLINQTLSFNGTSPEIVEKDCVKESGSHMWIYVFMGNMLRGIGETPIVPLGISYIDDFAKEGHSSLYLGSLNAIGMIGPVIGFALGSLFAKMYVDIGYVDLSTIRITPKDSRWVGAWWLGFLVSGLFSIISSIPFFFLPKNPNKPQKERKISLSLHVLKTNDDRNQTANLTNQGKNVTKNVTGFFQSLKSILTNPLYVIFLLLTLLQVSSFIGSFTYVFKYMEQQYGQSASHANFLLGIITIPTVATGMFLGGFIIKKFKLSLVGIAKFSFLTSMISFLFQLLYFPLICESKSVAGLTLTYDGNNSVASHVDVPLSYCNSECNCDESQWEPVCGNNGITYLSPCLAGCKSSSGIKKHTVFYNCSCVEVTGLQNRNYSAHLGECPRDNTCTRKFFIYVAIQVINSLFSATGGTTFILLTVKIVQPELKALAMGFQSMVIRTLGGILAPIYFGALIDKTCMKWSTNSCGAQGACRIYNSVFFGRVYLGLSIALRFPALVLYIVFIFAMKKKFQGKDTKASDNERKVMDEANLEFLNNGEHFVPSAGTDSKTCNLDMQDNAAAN
Put plainly: Drug uptake ratio assessed as enzyme-mediated uptake in HEK293 cells expressing human OATP1B3 at 1 uM at 37 degC for 3 mins by liquid scintillation spectroscopy relative to wild type.

Data set [2] concerns the target T1, OATP1B3. The data set is described as follows: Drug uptake ratio assessed as enzyme-mediated uptake in HEK293 cells expressing human OATP1B3 at 10 uM at 37 degC for 3 mins cells pretreated with sodium butyrate by liquid scintillation spectroscopy relative to wild type.
In data set [3] the target is T1, OATP1B3. The data set is described as follows: Drug uptake ratio assessed as enzyme-mediated uptake in HEK293 cells expressing human OATP1B3 at 10 uM at 37 degC for 3 mins by liquid scintillation spectroscopy relative to wild type.
The target in data set [4] is T1, OATP1B3. The data set is described as follows: Drug uptake ratio assessed as enzyme-mediated uptake in HEK293 cells expressing human OATP1B3 at 1 uM at 37 degC for 3 mins cells pretreated with sodium butyrate by liquid scintillation spectroscopy relative to wild type.
The target of data set [5] is T2, OATP1B1 (Homo sapiens, UniProt Q9Y6L6).
T2 sequence (Q9Y6L6 whole entry): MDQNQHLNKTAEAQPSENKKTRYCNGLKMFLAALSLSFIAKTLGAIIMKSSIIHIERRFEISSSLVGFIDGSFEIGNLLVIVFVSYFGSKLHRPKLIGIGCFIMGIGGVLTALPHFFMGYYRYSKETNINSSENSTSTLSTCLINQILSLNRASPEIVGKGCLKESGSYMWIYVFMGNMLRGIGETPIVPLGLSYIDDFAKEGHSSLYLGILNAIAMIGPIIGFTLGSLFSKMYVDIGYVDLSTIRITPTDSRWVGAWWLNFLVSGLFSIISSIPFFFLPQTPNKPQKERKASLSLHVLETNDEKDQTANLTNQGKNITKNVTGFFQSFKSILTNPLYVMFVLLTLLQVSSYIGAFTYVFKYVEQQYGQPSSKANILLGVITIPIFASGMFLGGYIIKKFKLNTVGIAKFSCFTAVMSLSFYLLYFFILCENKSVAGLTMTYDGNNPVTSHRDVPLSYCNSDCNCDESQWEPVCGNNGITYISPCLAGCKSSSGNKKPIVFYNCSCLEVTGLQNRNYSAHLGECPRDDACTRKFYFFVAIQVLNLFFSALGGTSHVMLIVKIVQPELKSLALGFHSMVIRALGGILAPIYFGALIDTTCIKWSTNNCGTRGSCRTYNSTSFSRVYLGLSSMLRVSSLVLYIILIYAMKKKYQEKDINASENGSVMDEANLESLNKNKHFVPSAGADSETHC
The data set is described as follows: Drug uptake ratio assessed as enzyme-mediated uptake in HEK293 cells expressing human OATP1B1 at 1 uM at 37 degC for 3 mins by liquid scintillation spectroscopy relative to wild type.

The target in data set [6] is T2, OATP1B1. Put plainly: Drug uptake ratio assessed as enzyme-mediated uptake in HEK293 cells expressing human OATP1B1 at 10 uM at 37 degC for 3 mins by liquid scintillation spectroscopy relative to wild type.
Data set [7] deals with T3, OATP2B1 (Homo sapiens, UniProt O94956).
T3 sequence (O94956 whole entry): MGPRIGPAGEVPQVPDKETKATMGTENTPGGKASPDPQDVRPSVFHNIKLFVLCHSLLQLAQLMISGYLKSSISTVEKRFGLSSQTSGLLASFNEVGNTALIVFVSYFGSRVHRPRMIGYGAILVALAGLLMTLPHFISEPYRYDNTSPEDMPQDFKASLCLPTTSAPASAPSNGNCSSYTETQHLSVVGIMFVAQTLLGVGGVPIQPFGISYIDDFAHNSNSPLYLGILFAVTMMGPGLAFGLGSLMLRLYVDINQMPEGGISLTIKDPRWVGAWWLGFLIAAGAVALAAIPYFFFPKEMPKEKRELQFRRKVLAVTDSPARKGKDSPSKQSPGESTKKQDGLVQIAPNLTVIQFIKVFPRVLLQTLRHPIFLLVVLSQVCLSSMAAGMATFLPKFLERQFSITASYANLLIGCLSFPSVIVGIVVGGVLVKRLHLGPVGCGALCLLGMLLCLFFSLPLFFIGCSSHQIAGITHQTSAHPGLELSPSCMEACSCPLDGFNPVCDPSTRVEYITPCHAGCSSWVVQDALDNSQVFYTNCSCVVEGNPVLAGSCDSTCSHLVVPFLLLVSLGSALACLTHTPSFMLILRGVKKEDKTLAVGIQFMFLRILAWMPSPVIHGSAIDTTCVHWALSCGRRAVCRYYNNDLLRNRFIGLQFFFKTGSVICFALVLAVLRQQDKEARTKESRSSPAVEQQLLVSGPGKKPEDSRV
The data set is described as follows: Drug uptake ratio assessed as enzyme-mediated uptake in HEK293 cells expressing human OATP2B1 at 10 uM at 37 degC for 3 mins by liquid scintillation spectroscopy relative to wild type.

In data set [8] the target is T3, OATP2B1. Put plainly: Drug uptake ratio assessed as enzyme-mediated uptake in HEK293 cells expressing human OATP2B1 at 1 uM at 37 degC for 3 mins by liquid scintillation spectroscopy relative to wild type.

`C[C@]12CC[C@@H]3c4ccc(O)cc4CC[C@H]3[C@@H]1CC[C@@H]2O[C@@H]1O[C@H](C(=O)O)[C@@H](O)[C@H](O)[C@H]1O` [ESTRADIOL 17B GLUCURONIDE]: the uptake ratio at 0.05 h, 1 µM is 87 at OATP1B3 [1] and 74 on OATP1B3 [4]. Further, the results for the uptake ratio at 0.05 h, 10 µM at OATP1B3 [2] and on OATP1B3 [3] were 78 and 116, respectively.
As for `Cc1ncc2n1-c1ccc(Cl)cc1C(c1ccccc1F)=NC2` [MIDAZOLAM], the values for the uptake ratio at 0.05 h, 1 µM at OATP1B3 [1], on OATP1B1 [5] and on OATP1B3 [4] were 1.7, 0.92 and 2.1, respectively. Moreover, the uptake ratio at 0.05 h, 10 µM was 1.9 on OATP1B3 [2], 0.92 at OATP1B1 [6] and 1.7 on OATP1B3 [3].
`CC(C)c1nc(N(C)S(C)(=O)=O)nc(-c2ccc(F)cc2)c1/C=C/[C@@H](O)C[C@@H](O)CC(=O)O` [ROSUVASTATIN]: the uptake ratio at 0.05 h, 1 µM at OATP1B3 [1] was 35; at OATP1B1 [5] it was 3.4; at OATP1B3 [4], 16; at OATP2B1 [8], 6. The uptake ratio at 0.05 h, 10 µM on OATP1B3 [2] is 25; at OATP1B1 [6], 1.9; on OATP1B3 [3], 39; at OATP2B1 [7], 6.3.

For the origin of these results see ChEMBL document CHEMBL3525928 (Drug Metab Dispos, 2011).
